PubChem BioAssay (NCI)
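Here, GI50 denotes the concentration required for 50% inhibition of growth. Definition used: TGI = concentration required for complete inhibition of growth.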

What was measured:
Experiment in all cases: NCI tumour cell line growth inhibition, 384-well format; in the data active = GI50 below about 0.43 µM; inactive = the rest
[1] = test system: HCT-15 colon
[2] = test system: CAKI-1 renal
[3] = test system: COLO 205 colon
[4] = test system: NCI-H460 NSCLC
[5] = test system: MALME-3M melanoma
[6] = test system: UACC-257 melanoma
[7] = test system: HOP-62 NSCLC
[8] = test system: SW-620 colon
[9] = test system: NCI-H322M lung
[10] = test system: DU-145 prostate
[11] = test system: NCI-H226 lung
[12] = test system: OVCAR-4 ovarian
[13] = test system: NCI-H23 lung
[14] = test system: SN12C renal
[15] = test system: SF-539 CNS
[16] = test system: UO-31 renal
[17] = test system: SNB-75 CNS
[18] = test system: K-562 leukemia
[19] = test system: A498 renal
[20] = test system: HT29 colon
[21] = test system: SF-268 CNS
[22] = test system: HCC-2998 colon
[23] = test system: HCT-116 colon
[24] = test system: EKVX NSCLC
[25] = test system: NCI/ADR-RES ovarian
[26] = test system: SR leukemia
[27] = test system: M14 melanoma
[28] = test system: OVCAR-3 ovarian
[29] = test system: MDA-MB-468 breast
[30] = test system: PC-3 prostate
[31] = test system: MOLT-4 leukemia
[32] = test system: SF-295 CNS
[33] = test system: ACHN renal
[34] = test system: HOP-92 NSCLC
[35] = test system: CCRF-CEM leukemia
[36] = test system: NCI-H522 lung
[37] = test system: MCF7 breast
[38] = test system: OVCAR-5 ovarian
[39] = test system: SK-OV-3 ovarian
[40] = test system: RPMI-8226 leukemia
[41] = test system: TK-10 renal
[42] = test system: OVCAR-8 ovarian
[43] = test system: A549 NSCLC
[44] = test system: SNB-19 CNS
[45] = test system: RXF 393 renal
[46] = test system: LOX IMVI melanoma
[47] = test system: U251 glioblastoma
[48] = test system: KM12 colon
[49] = test system: HL-60(TB) leukemia
[50] = test system: SK-MEL-28 melanoma
[51] = test system: IGROV1 ovarian
[52] = test system: 786-0 renal
[53] = test system: SK-MEL-5 melanoma
[54] = test system: HS 578T breast
[55] = test system: T-47D breast
[56] = test system: MDA-MB-231 breast
[57] = test system: BT-549 breast

Cc1ccccc1CN1CC2=C(CCN(Cc3ccccc3)C2=O)N2CCN=C12
active: GI50 [29] 0.363 µM | GI50 [40] 0.203 µM | GI50 [49] 0.186 µM
3.11 µM: TGI [6]
20.2 µM: TGI [54]
70.9 µM: TGI [36]
7.97 µM: TGI [13]
7.9 µM: TGI [7]
9.62 µM: TGI [56]
9.66 µM: TGI [55]
23.3 µM: TGI [15]
9.29 µM: TGI [4]
22.8 µM: TGI [22]
2.9 µM: TGI [53]
10.5 µM: TGI [5]
1.32 µM: TGI [29]
6.21 µM: TGI [47]
3.39 µM: TGI [31]
63.1 µM: TGI [11]
> 100 µM: TGI [1] | TGI [2] | TGI [8] | TGI [9] | TGI [10] | TGI [14] | TGI [16] | TGI [18] | TGI [19] | TGI [20] | TGI [21] | TGI [23] | TGI [24] | TGI [27] | TGI [30] | TGI [33] | TGI [34] | TGI [35] | TGI [37] | TGI [38] | TGI [41] | TGI [42] | TGI [43] | TGI [44] | TGI [48] | TGI [50] | TGI [51] | TGI [52]
24.9 µM: TGI [17]
66.4 µM: TGI [57]
3.17 µM: TGI [32]
0.547 µM: TGI [49]
14.1 µM: TGI [3]
0.382 µM: TGI [40]
5.71 µM: TGI [28]
7.8 µM: TGI [25]
88.4 µM: TGI [46]
2.45 µM: TGI [26]
28 µM: TGI [45]
36.9 µM: TGI [39]
inactive: GI50 [1] 1.78 µM | GI50 [2] 3.97 µM | GI50 [3] 2.88 µM | GI50 [4] 2.61 µM | GI50 [5] 3.69 µM | GI50 [6] 1.13 µM | GI50 [7] 1.36 µM | GI50 [8] 5.69 µM | GI50 [9] 3.34 µM | GI50 [10] 3.11 µM | GI50 [11] 3.42 µM | GI50 [12] 1.08 µM | GI50 [13] 2.14 µM | GI50 [14] 3.45 µM | GI50 [15] 3.54 µM | GI50 [16] 5.97 µM | GI50 [17] 2.9 µM | GI50 [18] 0.631 µM | GI50 [19] 4.56 µM | GI50 [20] 12 µM | GI50 [21] 3.99 µM | GI50 [22] 2.66 µM | GI50 [23] 1.9 µM | GI50 [24] 3.3 µM | GI50 [25] 1.39 µM | GI50 [26] 1 µM | GI50 [27] 3.28 µM | GI50 [28] 2.06 µM | GI50 [30] 2.81 µM | GI50 [31] 1.7 µM | GI50 [32] 0.7 µM | GI50 [33] 6.02 µM | GI50 [34] 4.3 µM | GI50 [35] 1.04 µM | GI50 [36] 2.38 µM | GI50 [37] 3.12 µM | GI50 [38] 3.5 µM | GI50 [39] 3.44 µM | GI50 [41] 6.47 µM | GI50 [42] 0.796 µM | GI50 [43] 4.2 µM | GI50 [44] 2.98 µM | GI50 [45] 4.17 µM | GI50 [46] 2.09 µM | GI50 [47] 1.8 µM | GI50 [48] 6.87 µM | GI50 [50] 4.55 µM | GI50 [51] 53.8 µM | GI50 [52] 4.14 µM | GI50 [53] 1.19 µM | GI50 [54] 2.23 µM | GI50 [55] 2 µM | GI50 [56] 2.83 µM | GI50 [57] 4.06 µM
4.99 µM: TGI [12]
